From patent US20160235807A1, “AGONISTS OF GUANYLATE CYCLASE USEFUL FOR DOWNREGULATION OF PRO-INFLAMMATORY CYTOKINES” (SYNERGY PHARMACEUTICALS, INC., priority 2013, published 2016)
Entries after “also recorded” stand apart in the source; their conditions may differ. Bridge positions count the residues as written; N and C are the ends. Peptide text beside a SMILES is read from it.

Assays:
[1] = type: in vitro ADME
Procedure: (§1) Plecanatide and SP-333 were incubated in simulated intestinal fluid (SIF) for 6-24 h. Inactivated SIF was used as a control. Following the treatment, samples were analyzed by HPLC by cGMP production in T84 cells. […] The active metabolite, SP-338 was characterized by MS and MS/MS and identified to be formed via removal of carboxyl terminal leucine possibly due to cleavage by carboxypeptidases.

colonic explants [2] = experiment: Explant cultures of colon tissue from TNBS-induced colitis BALB/c mice, cytokine ELISA; type: in vivo, mouse; conditions: 24 h, vs vehicle-treated explants
Procedure: (§2) Colonic tissue fragments (0.5 g dry weight) from the TNBS-induced colitis mice and TCRα^−/− knockout mice were processed as previously described (Hegazi et al., 2005). Tissue fragment supernatants were collected after 24 h for cytokine ELISAs. Murine immunoassay kits (R&D System) were used according to the manufacturer's instructions for IL-12p40, IL-23 and TNF. Linco Cytokine-16 plex Mouse ELISA was performed for MIP-1α, RANTES, IL-10 and IL-17 (Millipore) as per manufacturer's instructions.
(§3) Murine IL-12 p40, IL-1β, TNF, IFN-γ, immunoassay kits (R&D System, MN, USA) were used according to the manufacturer's instructions. Linco Cytokine-16 plex Mouse ELISA was performed for MIP-1α, RANTES, IL-10, TNF and IL-17 (Millipore, Billerica, Mass.) as per manufacturer's instructions.

[3] = type: in vitro ADME; remark: listed apart in the source
Procedure: (§4) The potency of test peptides to stimulate cGMP synthesis in T84 cells was assayed by a published procedure (Shailubhai et al. 2000). Briefly, confluent monolayers of T-84 cells in 24-well plates were washed twice with 250 μl of DMEM containing 50 mM HEPES (pH 7.4), pre-incubated at 37° C. for 10 min with 250 μl of DMEM containing 50 mM HEPES (pH 7.4) and 1 mM isobutylmethylxanthine (IBMX), followed by incubation with test peptide for 30 min. The medium was aspirated, and the reaction was terminated by the addition of 3% perchloric acid. Following centrifugation, and neutralization with 0.1 N NaOH, the resulting supernatant was used directly for measurements of intracellular cGMP using an ELISA kit (Caymen Chemical, Ann Arbor, Mich.). Results are expressed as pmol of cGMP/mg of protein in the cell extracts.
as §1

DSS-induced colitis = DSS-induced colitis in BDF-1 mice; type: in vivo, mouse
Procedure: To evaluate the efficacy of plecanatide in DSS induced colitis model, 48 BDF-1 mice were divided into 8 treatment groups (6 mice/group). One group was not exposed to DSS (untreated control) and groups 2-8 were treated with 5% DSS in the drinking water on day 0. Plecanatide or SP-333 solutions formulated in 0.1M phosphate buffer (pH 7) was administered by oral gavage, once a day at 0.005, 0.05, 0.5, 2.5 and 5 mg/kg, from study day −1 (i.e. prior to initiation of DSS treatment) through day 6 for SP-333 or day 7 for plecanatide. DSS treatment was initiated on day 0 for groups 2-8 until the end of the study. Sulfasalazine (80 mg/kg) or 5-ASA (100 mg/kg) was used as positive control and was administered daily. Mice were sacrificed on day 7. The large intestine was removed and weighed. Distal section of the large intestine was collected and fixed as described above.
(§5) Disease activity index (DAI) was calculated by scoring in-life parameters starting from day −1 until the end of the study. Once daily, all mice were weighed and assessed for stool consistency, and the presence of overt blood in the stool or around the anus essentially similar to that reported earlier. Colitis severity was assessed by histopathological analyses of H&E stained tissue sections (Hegazi et al., 2005; Dave et al., 2009) employing the following criteria: (score 0) normal appearing crypts; (score 1) abnormal crypt pathology without ulceration; (score 2) depleted crypts with ulceration; (score 3) 20-50% depleted crypts and increased ulceration; (score 4) >50% depleted crypts with substantial ulceration and (score 5) totally ulcerated/inflamed colon with no crypts remaining. All slides were scored in a blinded manner. Colitis severity in TCRα−/− model was scored as previously described^25. All slides were scored in a blinded manner. Disease activity index (DAI) was calculated by assessing body weight, stool consistency, and the presence of overt blood in stools or around the anus, essentially similar to that reported earlier (Hamamoto et al., 1999).

TNBS-induced colitis [4] = experiment: TNBS-induced colitis in BALB/c mice; type: in vivo, mouse; conditions: plecanatide 0.5 and 2.5 mg/kg oral once daily 7 days; p<0.05; preliminary study
Procedure: Mouse strains BDF1 and BALB/c were used to examine the efficacy of plecanatide in TNBS induced colitis. The procedures used were as previously described (Hegazi et al., 2005; Dave et al., 2009). Briefly, to induce colitis in specific pathogen-free 2-4 months old female BALB/c mice, 0.5 mg of TNBS in 50% ethanol was slowly administered into the lumen of the colon via a 3.5 F catheter fitted onto a 1-ml syringe (total injection volume 100 μl). Plecanatide formulated in PBS was administered by oral gavage for a total of 7 days, with the first dose given one day prior to TNBS challenge. […]
as §5, with “All slides were scored in a blinded manner. Colitis severity in TCRα−/− model was scored as previously described^25. All slides were scored in a blinded manner. Disease activity index (DAI) was calculated by assessing body weight, stool consistency, and the presence of overt blood in stools or around the anus, essentially similar to that reported earlier (Hamamoto et al., 1999).” left out

GC-C Receptor = biological target: T1, GC-C Receptor (Homo sapiens, UniProt P25092); experiment: Cyclic GMP stimulation assay in T84 cells; type: cell-based
T1 construct: endogenous in cells; host or cells: T84 human colon carcinoma cells
T1 sequence (P25092 24-1073): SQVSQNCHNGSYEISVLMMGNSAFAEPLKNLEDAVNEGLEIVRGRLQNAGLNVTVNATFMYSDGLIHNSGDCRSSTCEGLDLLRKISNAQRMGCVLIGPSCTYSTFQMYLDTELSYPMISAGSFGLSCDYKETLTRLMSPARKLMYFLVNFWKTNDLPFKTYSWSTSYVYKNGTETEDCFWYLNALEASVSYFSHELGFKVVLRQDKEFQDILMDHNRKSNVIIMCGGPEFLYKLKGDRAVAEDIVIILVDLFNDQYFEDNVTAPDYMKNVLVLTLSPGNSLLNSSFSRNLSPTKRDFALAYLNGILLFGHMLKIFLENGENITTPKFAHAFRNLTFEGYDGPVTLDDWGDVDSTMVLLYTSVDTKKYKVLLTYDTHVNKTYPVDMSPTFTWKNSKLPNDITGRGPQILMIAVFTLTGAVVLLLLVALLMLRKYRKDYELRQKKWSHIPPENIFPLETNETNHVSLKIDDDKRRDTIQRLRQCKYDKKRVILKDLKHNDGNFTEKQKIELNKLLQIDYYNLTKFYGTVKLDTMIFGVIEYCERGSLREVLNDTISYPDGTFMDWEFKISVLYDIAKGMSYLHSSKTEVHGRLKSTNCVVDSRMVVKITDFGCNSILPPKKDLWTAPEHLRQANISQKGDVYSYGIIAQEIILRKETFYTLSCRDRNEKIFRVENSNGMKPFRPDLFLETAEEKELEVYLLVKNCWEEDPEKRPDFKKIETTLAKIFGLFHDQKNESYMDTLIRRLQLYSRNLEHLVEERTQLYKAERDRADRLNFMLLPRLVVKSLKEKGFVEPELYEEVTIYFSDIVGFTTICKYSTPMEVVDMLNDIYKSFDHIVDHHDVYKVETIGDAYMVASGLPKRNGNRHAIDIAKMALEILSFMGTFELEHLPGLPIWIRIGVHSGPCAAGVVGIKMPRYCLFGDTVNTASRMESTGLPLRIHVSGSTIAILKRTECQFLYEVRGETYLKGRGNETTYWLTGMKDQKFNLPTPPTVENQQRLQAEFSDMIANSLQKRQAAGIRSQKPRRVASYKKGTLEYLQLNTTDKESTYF
Procedure: as §4

colon dysplasia = conditions: oral plecanatide; Chang et al., 2014; Shailubhai et al., 2012; cited from earlier work
TNBS-induced colitis [5] = experiment: TNBS-induced colitis in BDF-1 mice; type: in vivo, mouse
Procedure: Mouse strains BDF1 and BALB/c were used to examine the efficacy of plecanatide in TNBS induced colitis. The procedures used were as previously described (Hegazi et al., 2005; Dave et al., 2009). Briefly, to induce colitis in specific pathogen-free 2-4 months old female BALB/c mice, 0.5 mg of TNBS in 50% ethanol was slowly administered into the lumen of the colon via a 3.5 F catheter fitted onto a 1-ml syringe (total injection volume 100 μl). Plecanatide formulated in PBS was administered by oral gavage for a total of 7 days, with the first dose given one day prior to TNBS challenge. Mice were observed daily for body weight, food consumption and for signs of any apparent toxicity, rectal bleeding or prolapse. After 7 days of treatment, GI tissue collection, fixation and histopathological scoring were performed essentially as described previously (Sheikh et al., 2011). GI tissues were also collected and immediately processed for explant culture and cytokine expression as described below.
To induce colitis in BDF1 mice, a total of 90, 10-12 week old, H. pylori free male mice were used. Animals were randomized into 9 groups. TNBS was rectally administered as described above in a total injection volume of 100 μl. Oral administration of PBS formulated plecanatide (0.0005-50 mg/kg), animal monitoring and collection of GI tissues was performed as described above. Daily administration of plecanatide was continued through day 6, when the mice were euthanized. […] Distal sections were fixed, stained with H&E, and evaluated for histopathology and visual severity scores (Hegazi et al., 2005; Dave et al., 2009). […]
as §5

colitis in TCRα −/− mice = experiment: Spontaneous colitis in TCRα−/− mice; type: in vivo, mouse; conditions: plecanatide 0.5 and 2.5 mg/kg oral daily for 14 days; vs vehicle
Procedure: TCRα^−/− mice were matched for age and sex in all experiments. 16 week old TCRα−/− mice were treated with plecanatide at 0.5 or 2.5 mg/kg/day or PBS vehicle control by oral gavage for 14 days (6 mice per group). Mice were sacrificed 12 h after the final dose, and GI tissues were collected for experimental analyses. Colitis severity in TCRα^−/− model was scored as described (Berg et al., 1996).
as §5, with “Disease activity index (DAI) was calculated by assessing body weight, stool consistency, and the presence of overt blood in stools or around the anus, essentially similar to that reported earlier (Hamamoto et al., 1999).” left out

colonic explants [6] = experiment: Explant cultures of colon tissue from TCRα−/− mice, cytokine and chemokine ELISA; type: in vivo, mouse; conditions: explant culture 24 h, plecanatide treated mice
Procedure: as §2, §3

CC(C)C[C@H](NC(=O)[C@@H]1CSSC[C@@H]2NC(=O)[C@H](CC(C)C)NC(=O)[C@H](CCC(=O)O)NC(=O)[C@@H](NC(=O)[C@H](CCC(=O)O)NC(=O)[C@H](CC(=O)O)NC(=O)[C@@H](N)CC(N)=O)CSSC[C@H](NC(=O)[C@H](C)NC(=O)[C@H](C(C)C)NC(=O)[C@H](CC(N)=O)NC(=O)[C@H](C(C)C)NC2=O)C(=O)N[C@@H]([C@@H](C)O)C(=O)NCC(=O)N1)C(=O)O [plecanatide, Asn^1-Asp^2-Glu^3-Cys^4-Glu^5-Leu^6-Cys^7-Val^8-Asn^9-Val^10-Ala^11-Cys^12-Thr^13-Gly^14-Cys^15-Leu^16] (H-NDECELCVNVACTGCL-OH; disulfide 4-12, 7-15 (inferred))
HPLC analysis after digestion with SIF [1]: completely converts plecanatide into a shorter peptide | time over which intact peptide was stable, HPLC [1]: up to 6 h | suppression of secretion of IL-12p40 (colonic explants [2]): 37% | suppression of secretion of IL-23 (colonic explants [2]): 84% | suppression of secretion of TNF (colonic explants [2]): 67% | activity retained [3]: ~70% | biological activity lost [3]: ~35% | DSS induced colitis severity score (DSS-induced colitis; plecanatide 0.005 mg/kg oral gavage once a day, vs untreated controls p=0.02): significantly lower; also recorded: as effective as sulfasalazine (80 mg/kg) | amelioration of DSS-induced colitis at higher doses (DSS-induced colitis; plecanatide doses higher than 0.005 mg/day (so in the source)): did not produce incremental effect | colitis severity compared with reference compound sulfasalazine (80 mg/kg) (DSS-induced colitis; plecanatide, DSS model): superior to treatment with reference compound | colitis scores (TNBS-induced colitis [4]): significantly lower; also recorded: effectively ameliorated | potency to stimulate cGMP in T84 cells (GC-C Receptor): dose dependent increase in cGMP; also recorded: comparable to that of SP-333 | colon dysplasia (colon dysplasia): considerably reduced | colitis severity (TNBS-induced colitis [5]; plecanatide 0.05 mg/kg and higher doses oral, vs untreated controls): significantly lower; also recorded: statistically significant reduction | colitis severity (TNBS-induced colitis [5]; plecanatide doses under 0.005 mg/kg oral): ineffective | effective dose-range (TNBS-induced colitis [5]; plecanatide oral, TNBS model): 0.05 to 0.5 mg/kg | colitis severity compared with reference compound sulfasalazine (80 mg/kg) (TNBS-induced colitis [5]; plecanatide, TNBS model): superior to treatment with reference compound | colitis scores (colitis in TCRα −/− mice): reduced | levels of secreted IL-10 (colonic explants [6]): increased | production of IL-17 (colonic explants [6]): considerably suppressed | production of MIP-1α (colonic explants [6]): considerably suppressed | production of RANTES (colonic explants [6]): considerably suppressed
